The target of one test is casein kinase 1. As to the kind of experiment: casein kinase 1 assay. The following applies: 15 μM ATP; −(x) = no effect at highest concentration x tested; read-out: IC50 casein kinase 1 (CK 1). Format: biochemical. As for the experimental part: (§1) Kinases activities were assayed in Buffer A or C (unless otherwise stated), at 30° C., at a final ATP concentration of 15 μM. Blank values were subtracted and activities calculated as pmoles of phosphate incorporated for a 10 min. incubation (usually expressed in % of the maximal activity, i.e. without inhibitors). Controls were performed with appropriate dilutions of Me2SO. In some cases phosphorylation of the substrate was assessed by autoradiography after SDS-PAGE. IC50 values were estimated from the dose-response curves. • CDK1/cyclin B was extracted in homogenisation buffer from M phase starfish (Marthasterias glacialis) oocytes and purified by affinity chromatography on p9^CKShs1-Sepharose beads, from which it was eluted by free p9^CKShs1 as described. The kinase activity was assayed in buffer C, with 1 mg histone H1/ml, in the presence of 15 μM [γ-^32P] ATP (3,000 Ci/mmol; 1 mCi/ml) in a final volume of 30 μl. After 10 min. incubation at 30° C., 25 μl aliquots of supernatant were spotted onto 2.5×3 cm pieces of Whatman P81 phosphocellulose paper, and, 20 sec. later, the filters were washed five times (for at least 5 min. each time) in a solution of 10 ml phosphoric acid/liter of water. The wet filters were counted in the presence of 1 ml ACS (Amersham) scintillation fluid. • GSK-3β was either purified from rabbit muscle or expressed in and purified from insect Sf9 cells. It was assayed, following a 1/100 dilution in 1 mg BSA/ml 10 mM DTT, with 5 μl 40 μM GS-1 peptide as a substrate, in buffer A, in the presence of 15 μM [γ-^32P] ATP (3,000 Ci/mmol; 1 mCi/ml) in a final volume of 30 μl. […] Its activity was assayed in buffer C as described for CDK1/cyclin B. • CDK2/cyclin A, CDK2/cyclin E, CDK3/cyclin E, CDK4/cyclin D1, CDK6/cyclin D2, His-tagged erk1 and erk2, protein kinase C isoforms, the catalytic subunit of cAMP-dependent protein kinase, cGMP-dependent protein kinase, Myosin light chain kinase, casein kinases 1 & 2, ASK-γ (a plant homologue of GSK-3), insulin receptor tyrosine kinase domain (CIRK-41), c-raf, MAPKK, c-jun N terminal kinase (obtained from Promega), c-src kinase and v-abl kinase were assayed as described. Electrophoresis and Western Blotting

A further test deals with cdk5/p25 (Homo sapiens, UniProt Q00535). Briefly: CDK5/p25 kinase assay. Format: biochemical. The conditions noted are these: for IC50: 15 μM ATP, −(x) = no effect at highest concentration x tested. As for the experimental part: as §1
Another test deals with CDK1/cyclin B. Briefly: CDK1/cyclin B kinase assay (histone H1). The format is biochemical, starfish (Marthasterias glacialis). The conditions noted are these: 15 μM ATP; −(x) = no effect at highest concentration x tested. As for the experimental part: as §1
The next test has as its target T1, GSK3-β (UniProt P18266).
T1 construct: GSK-3β was either purified from rabbit muscle or expressed in and purified from insect Sf9 cells [18]
As to the kind of experiment: GSK-3β kinase assay (GS-1 peptide). Format: biochemical, rabbit. On the procedure:
as §1

For another test, the system named is brain, SF-295. Briefly: Human cancer cell line SF-295 proliferation. Format: cell-based.
The next test deals with colon, KM20L2. Briefly: Human cancer cell line KM20L2 proliferation. The format is cell-based. The following applies: KM-20L2.
The subject of another test is ovary, OVCAR-3. Briefly: Human cancer cell line OVCAR-3 proliferation. Format: cell-based.
For the next test, the system named is lung, H460. As to the kind of experiment: Human cancer cell line H460 proliferation. The following applies: NCI-H460. The format is cell-based.
Another test relates to kidney, A498. As to the kind of experiment: Human cancer cell line A498 proliferation. The format is cell-based.
A further test has as its system melanoma, SK-MEL-5. As to the kind of experiment: Human cancer cell line SK-MEL-5 proliferation. Format: cell-based.
Test [1] concerns GSK-3β like activity in Sf9 cells. As to the kind of experiment: Tau (htau23) phosphorylation in Sf9 cells, Western blotting. Format: cell-based. The conditions noted are these: 50 μM, 5 hrs, Sf9 cells expressing htau23. In general terms: A western blot detects proteins with antibodies after separation by electrophoresis.
Description: Cells and viruses. Sf9 cells (InVitrogen, San Diego, Calif.) were grown at 27° C. in monolayer culture Grace's medium (Gibco BRL, Gaithersburg, Md.) supplemented with 10% fetal bovine serum and 50 μg gentamycin/ml and 2.5 μg amphotericin/ml. BaculoGold was obtained from PharMingen (San Diego, Calif.), pVL1392 from In Vitrogen.
Tau transfection. The gene for htau23, the shortest human tau isoform [27] was excised from the bacterial expression vector pNG2 [28] with XbaI and BamHI, and inserted into the baculovirus transfer vector pVL1392 cut with the same restriction endonucleases. The BaculoGold system was used to construct the tau baculovirus containing vector. The BaculoGold DNA is a modified type of baculovirus containing a lethal deletion. Cotransfection of the BaculoGold DNA with a complementing baculovirus transfer vector rescued the lethal deletion of this virus DNA and reconstituted viable virus particles carrying the htau23 coding sequence. Plasmid DNA used for transfections was purified using QIAGEN cartridges (Hilden, Germany). Sf9 cells grown in monolayers (2×10^6 cells in a 60 mm cell culture dish) were cotransfected with baculovirus DNA (0.5 μg BaculoGold DNA) and with vector derivatives of pVL1392 (2 μg) using a calcium phosphate coprecipitation method. […]
In the next test the test system is P388 cell line. Briefly: Inhibition of cell proliferation, P388. Format: cell-based.
Where [2] appears, read: 15 μM ATP, −(x) = no effect at highest concentration x tested, read-out: IC50 GSK3-β.

Broadly, the IC50 is the point on the concentration scale where inhibition reaches its midpoint.

Values after ≈ are worked out from the molar mass of the structure shown. Where two headings read alike, the source gives them in different places.

Sequence of cdk5/p25 (Q00535 whole entry, species assumed): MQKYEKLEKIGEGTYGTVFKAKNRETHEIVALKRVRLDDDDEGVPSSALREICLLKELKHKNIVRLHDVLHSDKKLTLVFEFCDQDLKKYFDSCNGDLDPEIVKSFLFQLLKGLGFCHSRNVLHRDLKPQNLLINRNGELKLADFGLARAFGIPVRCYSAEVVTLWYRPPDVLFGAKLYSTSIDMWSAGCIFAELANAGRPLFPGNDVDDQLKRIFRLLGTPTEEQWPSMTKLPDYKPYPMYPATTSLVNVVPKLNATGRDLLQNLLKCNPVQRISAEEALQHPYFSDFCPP
Sequence of cdk5/p25 (Q15078 99-307 partner limits assumed, species assumed): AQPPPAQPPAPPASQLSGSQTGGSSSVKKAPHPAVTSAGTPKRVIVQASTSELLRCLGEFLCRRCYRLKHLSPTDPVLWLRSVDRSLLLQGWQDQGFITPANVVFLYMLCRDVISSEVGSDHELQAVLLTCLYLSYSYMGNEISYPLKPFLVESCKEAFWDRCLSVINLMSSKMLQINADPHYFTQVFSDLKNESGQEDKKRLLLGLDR

Consider `O=C([O-])c1ccc[n+](CCOC(=O)c2cc(Br)c[nH]2)c1` [agelongine], for which the IC50 on casein kinase 1, against cdk5/p25, at CDK1/cyclin B and at GSK3-β (setting [2]) was more than 100 µM throughout.
In the case of `O=C1NC(=O)/C(=C2/CCNC(=O)c3[nH]c(Br)cc32)N1` [axinohydantoin], the half-maximal inhibitory concentration (IC50) on casein kinase 1 amounted to 4.5 µM; on cdk5/p25, 7 µM; against CDK1/cyclin B it was 4 µM; on GSK3-β (setting [2]), 3 µM.
As to `Nc1ncc(/C=C/CNC(=O)c2ccc[nH]2)[nH]1` [clathrodin], the IC50 at casein kinase 1, against cdk5/p25 and on CDK1/cyclin B was more than 100 µM in each case.
`Nc1ncc(C2c3nc(N)[nH]c3CC(CNC(=O)c3cc(Br)c(Br)[nH]3)C2CNC(=O)c2cc(Br)c(Br)[nH]2)[nH]1` (centres unmarked) [dibromoageliferin]: the 50% inhibitory concentration (IC50) was more than 100 µM at casein kinase 1, more than 100 µM at cdk5/p25, more than 100 µM at CDK1/cyclin B and 11 µM on GSK3-β (setting [2]).
Turning to `NC1=N[C@H]2c3c([nH]c(Br)c3Br)C(=O)N3CCC[C@]23N1` [dibromocantharelline], the IC50 at casein kinase 1 is more than 100 µM; at cdk5/p25 it was more than 100 µM; at CDK1/cyclin B, more than 100 µM; on GSK3-β (read-out: IC50 towards GSK-3β) it was 3 µM.
In the case of `NC1=N[C@H]2n3c(cc(Br)c3Br)C(=O)N3CCC[C@]23N1` [dibromophakellin, reference compound], the IC50 was 18.8 µg/mL (≈ 48.3 µM) with brain, SF-295; 20.1 µg/mL (≈ 51.7 µM) in the test on colon, KM20L2; 15.7 µg/mL (≈ 40.4 µM) in the test on ovary, OVCAR-3; 22 µg/mL (≈ 56.5 µM) in the test with lung, H460; 17.8 µg/mL (≈ 45.8 µM) in the test with kidney, A498; 17 µg/mL (≈ 43.7 µM) with melanoma, SK-MEL-5.
Regarding `O=C1N[C@H]2n3c(cc(Br)c3Br)C(=O)N3CCC[C@]23N1` [dibromophakellstatin], the half-maximal inhibitory concentration (IC50) in the test on brain, SF-295 is 1.5 µg/mL (≈ 3.85 µM); with colon, KM20L2 it was 0.11 µg/mL (≈ 0.282 µM); at casein kinase 1, more than 10 µM; with ovary, OVCAR-3 it was 0.46 µg/mL (≈ 1.18 µM); on cdk5/p25, more than 100 µM; with lung, H460, 0.62 µg/mL (≈ 1.59 µM). For the same molecule, the IC50 with kidney, A498 is 0.21 µg/mL (≈ 0.538 µM); in the test with melanoma, SK-MEL-5, 0.11 µg/mL (≈ 0.282 µM); at CDK1/cyclin B, more than 10 µM; at GSK3-β (setting [2]), more than 10 µM.
With `NC1=NC(=O)/C(=C/CCNC(=O)c2cc(Br)c(Br)[nH]2)N1` [dispacamide A], the IC50 at casein kinase 1, at cdk5/p25, against CDK1/cyclin B and on GSK3-β (setting [2]) was more than 100 µM each time.
On to `CN1CC[C@H](c2c(O)cc(O)c3c(=O)cc(-c4ccccc4Cl)oc23)[C@H](O)C1` [flavopiridol, reference compound], for which, in test [1], the “AT100 signal (tau phosphorylated at T212 and S214)” value was “disappearance of AT100 signal”.
`Nc1ncc(/C=C/CNC(=O)c2cc(Br)c[nH]2)[nH]1` [hymenidin]: the IC50 at casein kinase 1 is more than 100 µM; at cdk5/p25, 4 µM; against CDK1/cyclin B it was more than 100 µM; at GSK3-β (setting [2]) it was 12 µM. Also, the “kinase selectivity among CDK1, CDK5, GSK-3β, CK1” value at cdk5/p25 (in words) is “selective for CDK5”.
For `Nc1ncc(/C=C/CNC(=O)c2cc(Br)c(Br)[nH]2)[nH]1` [oroïdin], the IC50 is more than 100 µM at casein kinase 1, 50 µM against cdk5/p25, more than 100 µM on CDK1/cyclin B and 20 µM on GSK3-β (setting [2]).
Turning to `Nc1nc([C@H]2[C@H](CNC(=O)c3cc(Br)c[nH]3)[C@@H](CNC(=O)c3cc(Br)c[nH]3)[C@@H]2c2c[nH]c(N)n2)c[nH]1` [sceptrin], the IC50 at casein kinase 1, against cdk5/p25, against CDK1/cyclin B and at GSK3-β (setting [2]) was more than 100 µM in each case.
With `Nc1ncc(C2=CCNC(=O)c3[nH]c(Br)c(Br)c32)[nH]1` [stevensine/odiline], the IC50 at casein kinase 1 is more than 100 µM; on cdk5/p25 it was more than 100 µM; on CDK1/cyclin B, 70 µM; on GSK3-β (setting [2]) it was more than 100 µM.
Consider agelastatin A, for which the IC50 is more than 100 µM at casein kinase 1, more than 100 µM on cdk5/p25, more than 100 µM at CDK1/cyclin B and 12 µM on GSK3-β (setting [2]).
For diacetyldebromohymenialdisine, the half-maximal inhibitory concentration (IC50) on casein kinase 1 came out at 1.1 µM; at cdk5/p25 it was 3 µM; against CDK1/cyclin B, 1.3 µM; on GSK3-β (setting [2]) it was 0.6 µM.
With diacetylhymenialdisine, the IC50 on casein kinase 1 worked out at 0.55 µM; against cdk5/p25, 1.5 µM; with P388 cell line (read-out: IC50 on P388 cell line in μM (parentheses)), 1.7 µM; at CDK1/cyclin B it was 0.13 µM; at GSK3-β (setting [2]), 0.16 µM. For the same molecule, the “IC50 on P388 cell line” value with P388 cell line turned out to be 0.56 µg/mL.
